Experimental data from ChEMBL document CHEMBL1201862, “PubChem BioAssay data set” (2004).
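Five compound concentrations were applied to cells in 96-well plates for 48 hours; endpoints were derived by simple linear interpolation of the resulting dose-response curve. GI50 marks 50% less growth.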 Calls of active or inactive are those of the source. Rule as the data show it: active = GI50 up to about 1.1 µM and inactive = higher.

Experiments:
Test in all cases: NCI-60 cell line screen, 48 h
SF-539 = system: SF-539
NCI-H226 = system: NCI-H226
A498 = system: A498
RPMI-8226 = system: RPMI-8226
HCT-15 = system: HCT-15
MDA-N = system: MDA-N
A549 = system: A549
CAKI-1 = system: CAKI-1
SK-MEL-5 = system: SK-MEL-5
BT-549 = system: BT-549
NCI-H23 = system: NCI-H23
UACC-257 = system: UACC-257
SF-295 = system: SF-295
TK-10 = system: TK-10
SK-MEL-28 = system: SK-MEL-28
MDA-MB-435 = system: MDA-MB-435
NCI-H522 = system: NCI-H522
K562 = system: K562
SR = system: SR
HOP-62 = system: HOP-62
SN12C = system: SN12C
NCI/ADR-RES = system: NCI/ADR-RES
SNB-75 = system: SNB-75
OVCAR-4 = system: OVCAR-4
Malme-3M = system: Malme-3M
ACHN = system: ACHN
HCC 2998 = system: HCC 2998
SW-620 = system: SW-620
HT-29 = system: HT-29
SF-268 = system: SF-268
HL-60 = system: HL-60
OVCAR-5 = system: OVCAR-5
Hs-578T = system: Hs-578T
LOX IMVI = system: LOX IMVI
786-0 = system: 786-0
NCI-H460 = system: NCI-H460
SK-OV-3 = system: SK-OV-3
HCT-116 = system: HCT-116
DU-145 = system: DU-145
UO-31 = system: UO-31
SK-MEL-2 = system: SK-MEL-2
COLO 205 = system: COLO 205
M14 = system: M14
MCF7 = system: MCF7
MDA-MB-231 = system: MDA-MB-231
KM12 = system: KM12
HOP-92 = system: HOP-92
OVCAR-8 = system: OVCAR-8
PC-3 = system: PC-3
IGROV-1 = system: IGROV-1
OVCAR-3 = system: OVCAR-3
CCRF-CEM = system: CCRF-CEM
MOLT-4 = system: MOLT-4
UACC-62 = system: UACC-62
U-251 = system: U-251
T47D = system: T47D
RXF 393 = system: RXF 393
SNB-19 = system: SNB-19
EKVX = system: EKVX

## CC[C@@H](CCCC[C@@H]1CC[C@H]2CC(=O)C[C@@H]12)OC
SF-539
  GI50: > 100 µM (inactive)
NCI-H226
  GI50: > 100 µM (inactive)
A498
  GI50: > 100 µM (inactive)
RPMI-8226
  GI50: > 100 µM (inactive)
HCT-15
  GI50: > 100 µM
MDA-N
  GI50: > 100 µM (inactive)
A549
  GI50: > 100 µM (inactive)
CAKI-1
  GI50: > 100 µM (inactive)
SK-MEL-5
  GI50: 85.1 µM (inactive)
BT-549
  GI50: 66.7 µM (inactive)
NCI-H23
  GI50: > 100 µM (inactive)
UACC-257
  GI50: 69.5 µM (inactive)
SF-295
  GI50: > 100 µM (inactive)
TK-10
  GI50: > 100 µM (inactive)
SK-MEL-28
  GI50: > 100 µM (inactive)
MDA-MB-435
  GI50: > 100 µM (inactive)
NCI-H522
  GI50: > 100 µM (inactive)
K562
  GI50: 30.8 µM (inactive)
SR
  GI50: > 100 µM (inactive)
HOP-62
  GI50: > 100 µM (inactive)
SN12C
  GI50: > 100 µM (inactive)
NCI/ADR-RES
  GI50: 99.5 µM (inactive)
SNB-75
  GI50: > 100 µM (inactive)
OVCAR-4
  GI50: > 100 µM (inactive)
Malme-3M
  GI50: > 100 µM (inactive)
ACHN
  GI50: > 100 µM (inactive)
HCC 2998
  GI50: > 100 µM (inactive)
SW-620
  GI50: > 100 µM (inactive)
HT-29
  GI50: > 100 µM (inactive)
SF-268
  GI50: > 100 µM (inactive)
HL-60
  GI50: 43.2 µM (inactive)
OVCAR-5
  GI50: > 100 µM (inactive)
Hs-578T
  GI50: > 100 µM (inactive)
LOX IMVI
  GI50: > 100 µM (inactive)

## CNC(=O)OCC1=C(COC(=O)NC)C(C)N(c2ccc(OC)cc2)C1 (centres undefined)
SF-539
  GI50: 59.8 µM (inactive)
786-0
  GI50: 57 µM (inactive)
NCI-H460
  GI50: 23 µM (inactive)
NCI-H226
  GI50: 1.18 µM (inactive)
SK-OV-3
  GI50: > 100 µM (inactive)
HCT-116
  GI50: > 100 µM (inactive)
DU-145
  GI50: > 100 µM (inactive)
UO-31
  GI50: 41.6 µM (inactive)
A498
  GI50: 0.351 µM (active)
SK-MEL-2
  GI50: > 100 µM (inactive)
RPMI-8226
  GI50: 58.6 µM (inactive)
COLO 205
  GI50: 59 µM (inactive)
M14
  GI50: 69.5 µM (inactive)
HCT-15
  GI50: > 100 µM
MCF7
  GI50: 50.6 µM (inactive)
MDA-MB-231
  GI50: > 100 µM (inactive)
A549
  GI50: > 100 µM (inactive)
SK-MEL-5
  GI50: > 100 µM (inactive)
KM12
  GI50: > 100 µM (inactive)
HOP-92
  GI50: > 100 µM (inactive)
BT-549
  GI50: > 100 µM (inactive)
NCI-H23
  GI50: 68.9 µM (inactive)
UACC-257
  GI50: 36.7 µM (inactive)
SF-295
  GI50: 88.9 µM (inactive)
TK-10
  GI50: 11.5 µM (inactive)
SK-MEL-28
  GI50: > 100 µM (inactive)
OVCAR-8
  GI50: 80.4 µM (inactive)
MDA-MB-435
  GI50: > 100 µM (inactive)
PC-3
  GI50: 71.6 µM (inactive)
IGROV-1
  GI50: 29 µM (inactive)
K562
  GI50: 69.2 µM (inactive)
OVCAR-3
  GI50: 43 µM (inactive)
CCRF-CEM
  GI50: 47.2 µM (inactive)
SR
  GI50: 15.7 µM (inactive)
HOP-62
  GI50: 40.3 µM (inactive)
SN12C
  GI50: > 100 µM (inactive)
NCI/ADR-RES
  GI50: 60.4 µM (inactive)
SNB-75
  GI50: 29.4 µM (inactive)
OVCAR-4
  GI50: 54.6 µM (inactive)
Malme-3M
  GI50: > 100 µM (inactive)
ACHN
  GI50: 62.2 µM (inactive)
MOLT-4
  GI50: 33.6 µM (inactive)
UACC-62
  GI50: 15.3 µM (inactive)
SW-620
  GI50: > 100 µM (inactive)
HT-29
  GI50: 64.9 µM (inactive)
SF-268
  GI50: > 100 µM (inactive)
HL-60
  GI50: 23.8 µM (inactive)
U-251
  GI50: 22.4 µM (inactive)
T47D
  GI50: 37.1 µM (inactive)
OVCAR-5
  GI50: 24.1 µM (inactive)
RXF 393
  GI50: 54.6 µM (inactive)
SNB-19
  GI50: > 100 µM (inactive)
Hs-578T
  GI50: > 100 µM (inactive)
EKVX
  GI50: > 100 µM (inactive)
LOX IMVI
  GI50: > 100 µM (inactive)

## CC(=O)c1ccc(NC(=O)/C(CC(=O)/C=C/c2ccccc2)=N/NC(N)=S)cc1
SF-539
  GI50: > 100 µM (inactive)
786-0
  GI50: > 100 µM (inactive)
NCI-H460
  GI50: 68.4 µM (inactive)
NCI-H226
  GI50: > 100 µM (inactive)
SK-OV-3
  GI50: > 100 µM (inactive)
HCT-116
  GI50: > 100 µM (inactive)
UO-31
  GI50: 41.1 µM (inactive)
A498
  GI50: > 100 µM (inactive)
SK-MEL-2
  GI50: > 100 µM (inactive)
RPMI-8226
  GI50: 69.3 µM (inactive)
M14
  GI50: > 100 µM (inactive)
HCT-15
  GI50: 60.5 µM
MDA-N
  GI50: > 100 µM (inactive)
MCF7
  GI50: 34.4 µM (inactive)
MDA-MB-231
  GI50: > 100 µM (inactive)
A549
  GI50: > 100 µM (inactive)
CAKI-1
  GI50: > 100 µM (inactive)
SK-MEL-5
  GI50: 43.7 µM (inactive)
KM12
  GI50: 44.4 µM (inactive)
HOP-92
  GI50: > 100 µM (inactive)
BT-549
  GI50: > 100 µM (inactive)
NCI-H23
  GI50: 60 µM (inactive)
UACC-257
  GI50: > 100 µM (inactive)
SF-295
  GI50: > 100 µM (inactive)
TK-10
  GI50: > 100 µM (inactive)
SK-MEL-28
  GI50: > 100 µM (inactive)
OVCAR-8
  GI50: 87.7 µM (inactive)
MDA-MB-435
  GI50: > 100 µM (inactive)
PC-3
  GI50: > 100 µM (inactive)
IGROV-1
  GI50: 53.1 µM (inactive)
NCI-H522
  GI50: 33.3 µM (inactive)
K562
  GI50: 75.3 µM (inactive)
OVCAR-3
  GI50: > 100 µM (inactive)
SR
  GI50: > 100 µM (inactive)
HOP-62
  GI50: > 100 µM (inactive)
SN12C
  GI50: > 100 µM (inactive)
NCI/ADR-RES
  GI50: 50 µM (inactive)
SNB-75
  GI50: > 100 µM (inactive)
OVCAR-4
  GI50: 49.5 µM (inactive)
Malme-3M
  GI50: > 100 µM (inactive)
ACHN
  GI50: 66.1 µM (inactive)
MOLT-4
  GI50: 46.5 µM (inactive)
UACC-62
  GI50: > 100 µM (inactive)
HCC 2998
  GI50: > 100 µM (inactive)
SW-620
  GI50: > 100 µM (inactive)
HT-29
  GI50: 41.5 µM (inactive)
SF-268
  GI50: > 100 µM (inactive)
HL-60
  GI50: 80.7 µM (inactive)
U-251
  GI50: > 100 µM (inactive)
T47D
  GI50: 32.6 µM (inactive)
OVCAR-5
  GI50: > 100 µM (inactive)
RXF 393
  GI50: > 100 µM (inactive)
Hs-578T
  GI50: > 100 µM (inactive)
EKVX
  GI50: 47.2 µM (inactive)
LOX IMVI
  GI50: > 100 µM (inactive)
